The results in this text go back to ChEMBL document CHEMBL1201862, “PubChem BioAssay data set” (2004).

Test in all cases: NCI tumour cell line growth inhibition, 48 h
Experiment [1] relates to A498.
For experiment [2], the system named is HCT-15.
Experiment [3] concerns Hs-578T.
The subject of experiment [4] is IGROV-1.
Experiment [5] concerns LOX IMVI.
Experiment [6] relates to M14.
Experiment [7] relates to MCF7.
Experiment [8] concerns MDA-MB-231.
Experiment [9] concerns MDA-N.
Experiment [10] relates to MOLT-4.
Experiment [11] concerns OVCAR-3.
The subject of experiment [12] is OVCAR-5.
Experiment [13] has as its system RPMI-8226.
Experiment [14] relates to SF-295.
In experiment [15] the test system is SK-MEL-28.
Experiment [16] concerns SK-OV-3.
Experiment [17] relates to SN12C.
The subject of experiment [18] is TK-10.
The test system of experiment [19] is UACC-257.
Experiment [20] deals with SR.

The structures appear in SMILES notation.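 Cultured in 96-well plates, cells were exposed to test compound for 48 hours across five concentrations. GI50: concentration for 50% inhibition of growth.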 Calls of active or inactive are those of the source. Cut-off read from the data, not from the text of the source: active = GI50 up to about 1.1 µM and inactive = higher.

Consider `CC(C)(C)c1ccc(NS(=O)(=O)c2ccc(N)cc2)cc1`, for which the GI50 in experiment [1] was 20.1 µM (inactive); in experiment [2], 30.3 µM; in experiment [3], 27.4 µM (inactive); in experiment [4] it was 18.8 µM (inactive); in experiment [5] it was 17.6 µM (inactive); in experiment [6], 20.5 µM (inactive). In addition, the GI50 was 18.4 µM (inactive) in experiment [7]; 25.8 µM (inactive) in [8]; 23.6 µM (inactive) in [9]; 14.5 µM (inactive) in [10]; 2.76 µM (inactive) in [11]; 31.5 µM (inactive) in experiment [12]. Moreover, the GI50 is 11.6 µM (inactive) in experiment [13]; 1.9 µM (inactive) in [14]; 27.2 µM (inactive) in [15]; 3.29 µM (inactive) in experiment [16]; 22.3 µM (inactive) in experiment [17]; 59 µM (inactive) in experiment [18]. The GI50 in experiment [19] was 38.4 µM (inactive).
In the case of `COC(=O)c1c2c(cc3c1CC1(C3)Cc3cc4c(c(C(=O)OC)c3C1)CCCC4)CCCC2`, the GI50 in [1] was > 100 µM (inactive); in experiment [2] it was > 100 µM; in experiment [3], > 100 µM (inactive); in experiment [4], > 100 µM (inactive); in [5] it was > 100 µM (inactive); in experiment [6], > 100 µM (inactive). The GI50 in experiment [7] is > 100 µM (inactive); in experiment [8], > 100 µM (inactive); in [9] it was > 100 µM (inactive); in experiment [10] it was 57.5 µM (inactive); in experiment [11], > 100 µM (inactive); in [12] it was > 100 µM (inactive). Also, the GI50 in [13] was 49.8 µM (inactive); in [14], > 100 µM (inactive); in experiment [16], > 100 µM (inactive); in [17] it was > 100 µM (inactive); in [18], > 100 µM (inactive); in experiment [19], > 100 µM (inactive).
Consider `O=C(c1ccccc1)C(C(=O)c1ccccc1)c1nc2ccccc2sc1=O`, for which the GI50 in experiment [1] is > 25 µM (inactive); in experiment [2] it was 7.48 µM; in [3], 24.5 µM (inactive); in experiment [4] it was 8.11 µM (inactive); in [5], 9.68 µM (inactive); in [6] it was 15.8 µM (inactive). Moreover, the GI50 in [7] was 12.2 µM (inactive); in [8], 11.6 µM (inactive); in experiment [9] it was > 25 µM (inactive); in experiment [10], 8.09 µM (inactive); in experiment [11] it was > 25 µM (inactive); in experiment [12] it was > 25 µM (inactive). The GI50 in experiment [13] was 7.18 µM (inactive); in experiment [14], 10.1 µM (inactive); in experiment [15], > 25 µM (inactive); in [16] it was 6.46 µM (inactive); in experiment [17], 6.22 µM (inactive); in [18], 16.9 µM (inactive). The GI50 in [19] is > 25 µM (inactive).
`COC(=O)c1ccccc1Nc1ccccc1C(=O)OC`: the GI50 in experiment [1] was 52.8 µM (inactive); in [2], > 100 µM; in [3], 20.8 µM (inactive); in experiment [4] it was 89.3 µM (inactive); in [5], 56.1 µM (inactive); in [6], > 100 µM (inactive). The GI50 is > 100 µM (inactive) in experiment [7]; 65.2 µM (inactive) in experiment [8]; > 100 µM (inactive) in [9]; > 100 µM (inactive) in [10]; 79.6 µM (inactive) in [11]; > 100 µM (inactive) in experiment [12]. Also, the GI50 in experiment [13] is 64.1 µM (inactive); in [14], 39.4 µM (inactive); in experiment [15] it was > 100 µM (inactive); in experiment [16], > 100 µM (inactive); in [17], > 100 µM (inactive); in experiment [18], 41.2 µM (inactive). For the same compound, the GI50 in experiment [19] is > 100 µM (inactive).
For the compound `CN1C2=Nc3n(C)c4ccccc4[n+]3CN2c2ccccc21`, the GI50 was > 100 µM in experiment [2]; 27.5 µM (inactive) in [3]; 29.9 µM (inactive) in experiment [4]; 43.7 µM (inactive) in experiment [6]; 10.5 µM (inactive) in experiment [7]; 34.6 µM (inactive) in experiment [8]. Besides, the GI50 in [9] was 17.8 µM (inactive); in [10], 16.8 µM (inactive); in experiment [11] it was 10.8 µM (inactive); in experiment [12], 84.1 µM (inactive); in experiment [13], 41.1 µM (inactive); in experiment [14], 95.7 µM (inactive). Moreover, the GI50 was > 100 µM (inactive) in experiment [16]; 25.8 µM (inactive) in [17]; 28.3 µM (inactive) in experiment [20]; > 100 µM (inactive) in experiment [18]; 32.1 µM (inactive) in [19].
With `COc1cccc(C2c3cc4c(cc3OC(C)(N3CCCC3)C2C)OCO4)c1OC` (configuration not stated), the GI50 is 4.83 µM in experiment [2]; 10.7 µM (inactive) in experiment [3]; 5.82 µM (inactive) in experiment [4]; 11.7 µM (inactive) in experiment [5]; 14.6 µM (inactive) in [6]; 11.9 µM (inactive) in [7]. Besides, the GI50 in [8] is 19.5 µM (inactive); in [9], 10.6 µM (inactive); in experiment [10], 5.11 µM (inactive); in experiment [11] it was 5.07 µM (inactive); in [12] it was 16 µM (inactive); in experiment [13] it was 8.97 µM (inactive). The GI50 in experiment [14] is 9.1 µM (inactive); in experiment [15], 25.9 µM (inactive); in [16], 5.82 µM (inactive); in experiment [17], 6.52 µM (inactive); in experiment [20], 4.31 µM (inactive); in experiment [18], 13.7 µM (inactive). For the same compound, the GI50 in experiment [19] is 16 µM (inactive).
With `CNc1cc(OCc2ccccc2)c(OC)cc1C(=O)N1CCC[C@H]1CO`, the GI50 was > 100 µM (inactive) in experiment [1]; > 100 µM in [2]; > 100 µM (inactive) in [3]; > 100 µM (inactive) in experiment [4]; > 100 µM (inactive) in [5]; > 100 µM (inactive) in [6]. Also, the GI50 in [7], in experiment [8], in experiment [9], in experiment [10], in experiment [12] and in experiment [14] was > 100 µM (inactive) throughout. Further, the GI50 in [15], in [16], in experiment [17], in experiment [18] and in experiment [19] was > 100 µM (inactive) each time.
`CC1=NN(c2ccccc2Cl)C2(C1)SCC(=O)N2c1nc2ccccc2s1` (configuration not stated): the GI50 was > 100 µM (inactive) in experiment [1]; > 100 µM in [2]; > 100 µM (inactive) in experiment [3]; > 100 µM (inactive) in experiment [4]; > 100 µM (inactive) in [5]; > 100 µM (inactive) in [6]. Also, the GI50 in experiment [7], in experiment [8], in experiment [9], in experiment [11], in [12] and in [13] was > 100 µM (inactive) in each case. For the same compound, the GI50 in experiment [14], in experiment [15], in experiment [16], in [17], in experiment [18] and in experiment [19] was > 100 µM (inactive) each time.
As to `C[C@H](C1CC(C)(O)C(C)(O)C(O)O1)[C@H]1CC[C@H]2[C@@H]3[C@@H]4O[C@@H]4[C@@]4(O)CC=CC(=O)[C@]4(C)[C@H]3CC[C@]12C` (some centres not stated), the GI50 in experiment [1] is 22.4 µM (inactive); in experiment [2], > 50 µM; in [3], 0.039 µM (active); in [4], > 50 µM (inactive); in experiment [5], > 50 µM (inactive); in experiment [6], > 50 µM (inactive). For the same compound, the GI50 in [7] was > 50 µM (inactive); in experiment [8], 44 µM (inactive); in experiment [9] it was > 50 µM (inactive); in experiment [10] it was > 50 µM (inactive); in [11], > 50 µM (inactive); in experiment [12] it was > 50 µM (inactive). Moreover, the GI50 in experiment [13] is > 50 µM (inactive); in experiment [14], > 50 µM (inactive); in experiment [15] it was > 50 µM (inactive); in [16], 14.8 µM (inactive); in experiment [17], > 50 µM (inactive); in experiment [18] it was > 50 µM (inactive). The GI50 in experiment [19] is > 50 µM (inactive).
For `O=C1COc2cc(N3CCN(c4cccc(C(F)(F)F)c4)CC3)ccc2N1`, the GI50 is > 100 µM in experiment [2]; > 100 µM (inactive) in [3]; > 100 µM (inactive) in [4]; > 100 µM (inactive) in experiment [5]; > 100 µM (inactive) in [6]; > 100 µM (inactive) in [7]. The GI50 in [8], in experiment [9], in [10], in experiment [11], in experiment [12] and in experiment [13] was > 100 µM (inactive) each time. The GI50 in [14], in experiment [15], in [16], in [17], in experiment [20] and in experiment [18] was > 100 µM (inactive) throughout. In experiment [19], the GI50 is > 100 µM (inactive).
On to `COc1ccc(NC(C)c2ccncc2)cc1` (configuration not stated), for which the GI50 was > 100 µM (inactive) in experiment [1]; > 100 µM in experiment [2]; > 100 µM (inactive) in [3]; > 100 µM (inactive) in experiment [5]; > 100 µM (inactive) in [6]; > 100 µM (inactive) in experiment [7]. Also, the GI50 in [8], in experiment [9], in experiment [10], in experiment [11], in [12] and in experiment [13] was > 100 µM (inactive) in each case. Further, the GI50 is > 100 µM (inactive) in experiment [14]; > 100 µM (inactive) in experiment [15]; 18 µM (inactive) in [16]; > 100 µM (inactive) in experiment [17]; > 100 µM (inactive) in [18]; > 10 µM (inactive) in experiment [19].
